Results reported in PMC3081638 (The Journal of neuroscience : the official journal of the …, 2011).

Experiments:
[1] = test system: α/β&α-M3-β; format: cell-based, human; settings: α-M3-β chimera with the α/β concatemer; 10 μM; Figure 6
[2] = test system: nicotinic α4β2 receptor, pooled combinations of constructs; experiment: Steroid potentiation, values pooled over combinations of constructs; format: cell-based, human; settings: for mean potentiation, single copy of WLAGMI: 10 μM 17β-estradiol
[3] = molecular target: β/αWLAAC&β2 (Homo sapiens, UniProt P17787+P43681); format: cell-based; settings: β/αWLAAC concatemer with free β2; 10 μM; Figure 6
[4] = molecular target: α/β&β-M3-α (Homo sapiens, UniProt P17787+P43681, A332P/K336R/P333T/T327R/V337R); format: cell-based; settings: β-M3-α chimera (α4 sequence transferred to β2); 10 μM; Figure 6
[5] = molecular target: αWLAAC with α/β (Homo sapiens, UniProt P43681); format: cell-based; settings: 10 μM, Figure 6
[6] = molecular target: nicotinic α4β2 receptor (Homo sapiens, UniProt P43681); settings: ref Paradiso et al., 2001; cited from earlier work
[7] = molecular target: β/α & β2 (Homo sapiens, UniProt P17787+P43681); experiment: Agonist activation, two-electrode voltage clamp of Xenopus oocytes; format: cell-based
[8] = molecular target: α/β & α4 (Homo sapiens, UniProt P17787+P43681); experiment: as above; format: cell-based; settings: response to 1 μM 5I A85380 normalized to the response to 1 mM ACh
[9] = molecular target: α/β&β2F119Q (Homo sapiens, UniProt P17787+P43681, F144Q); experiment: as above; format: cell-based
[10] = molecular target: nicotinic α4β2 receptor, α4 & β2 1:8 (Homo sapiens, UniProt P17787+P43681); experiment: as above; format: cell-based; settings: response to 1 μM 5I A85380 normalized to the response to 1 mM ACh
[11] = molecular target: nicotinic α4β2 receptor, α4 & β2 8:1 (Homo sapiens, UniProt P17787+P43681); experiment: as above; format: cell-based; settings: response to 1 μM 5I A85380 normalized to the response to 1 mM ACh
[12] = molecular target: β/α&β2F119Q (Homo sapiens, UniProt P17787+P43681, F144Q); experiment: as above; format: cell-based
[13] = test system: (α4)2(β3)3; settings: (α4)2(β3)3 receptor; ref Zwart et al., 2006; cited from earlier work
[14] = molecular target: β/α concatemer expressed alone (Homo sapiens, UniProt P17787+P43681); experiment: Agonist activation, two-electrode voltage clamp of Xenopus oocytes; format: cell-based; settings: response to 1 μM 5I A85380 normalized to the response to 1 mM ACh
[15] = molecular target: α/β concatemer expressed alone (Homo sapiens, UniProt P17787+P43681); experiment: as above; format: cell-based; settings: response to 1 μM 5I A85380 normalized to the response to 1 mM ACh
[16] = molecular target: α/β & β2 (Homo sapiens, UniProt P17787+P43681); experiment: as above; format: cell-based
[17] = molecular target: β/α & α4 (Homo sapiens, UniProt P17787+P43681); experiment: as above; format: cell-based; settings: response to 1 μM 5I A85380 normalized to the response to 1 mM ACh

Which “potentiation by 17β-estradiol (in words)” value [1] does the source give for C[C@]12CC[C@@H]3c4ccc(O)cc4CC[C@H]3[C@@H]1CC[C@@H]2O [17β-estradiol] here?
The value was “removes potentiation”.

And the “average potentiation by 10 μM 17β-estradiol” value (“average potentiation” below) ([2]; 0 WLAGMI domains, 10 combinations tested)?
Its value is 0.97 ± 0.02.

And the “average potentiation” value ([2]; 1 WLAGMI domain, 10 combinations)?
The value was 2.2 ± 0.2.

What about the “average potentiation” value ([2]; 2 WLAGMI domains, 5 combinations) of the same compound?
Its value is 2.4 ± 0.4.

What about the “average potentiation” value ([2]; 3 WLAGMI domains, 4 combinations) of the same compound?
The value was 3.3 ± 0.2.

What about the “average potentiation” value ([2]; 5 WLAGMI domains, 3 combinations) of the same compound?
The value was 3.7 ± 0.3.

What about the “mean potentiation by 17β-estradiol” value ([2]; 5 cases with no untethered AGMI and 2 or 3 critical tryptophans) of the same compound?
Its value is 0.94 ± 0.04.

And the “mean potentiation, single copy of WLAGMI” value ([2]; WLAGMI on α4 N-terminal constructs, N=2 combinations)?
Its value is 1.6 ± 0.1 fold.

And the “mean potentiation, single copy of WLAGMI” value ([2]; WLAGMI on β2 N-terminal constructs, N=8 combinations)?
The value was 2.3 ± 0.3 fold.

And the “mean potentiation, single copy of WLAGMI” value ([2]; domain on the structural subunit, 4 combinations)?
Its value is 2.4 ± 0.5 fold.

And the “potentiation by 17β-estradiol (in words)” value [3]?
Its value is “but not when it is expressed with free β2”.

What about the “potentiation by 17β-estradiol (in words)” value [4] of the same compound?
The value was “confers potentiation”.

And the “potentiation by 17β-estradiol (in words)” value [5]?
Its value is “removes potentiation”.

With CC12CCC3c4ccc(O)cc4CCC3C1CCC2O (single isomer, unassigned) [enantiomer of 17β-estradiol] as the compound, how does the “potentiation of the α4β2 receptor (in words)” value [6] read?
Its value is “does not potentiate”.

What does the source list for Ic1cncc(OC[C@@H]2CCN2)c1 [5I A85380, 5-iodo-3-(2(S)-azetidinylmethoxy) pyridine]?
EC50 [7]: 29 ± 12 nM; 5I A85380 response ([7]; β/α & β2, response to 1 μM 5I A85380 normalized to the response to 1 mM ACh): 1.59; 5I A85380 maximal response ([7]; β/α concatemer with β2, normalized to the response to 1 mM ACh): 1.44 ± 0.10 fold; 5I A85380 response [8]: 0.14; EC50 [9]: 127 ± 14 nM; 5I A85380 maximal response ([9]; α/β concatemer with β2F119Q, normalized to the response to 1 mM ACh): 1.13 ± 0.11 fold; 5I A85380 response [10]: 1.44; 5I A85380 response [11]: 0.19; EC50 [12]: 16 ± 1 nM; 5I A85380 maximal response ([12]; β/α concatemer with β2F119Q, normalized to the response to 1 mM ACh): 1.29 ± 0.04 fold; maximal response to 5I A85380 compared with ACh [13]: greater than the maximal response to ACh; 5I A85380 response [14]: 0.44; 5I A85380 response [15]: 0.16; EC50 [16]: 8 ± 1 nM; 5I A85380 response ([16]; α/β & β2, response to 1 μM 5I A85380 normalized to the response to 1 mM ACh): 1.84; 5I A85380 maximal response ([16]; α/β concatemer with wild-type β2, normalized to the response to 1 mM ACh): 1.44 ± 0.07 fold; 5I A85380 response [17]: 0.17
